Assays:
[1] = tested on: rat isolated perfused heart; test: Reversal time of coronary vasodilation in rat isolated perfused hearts; conditions: bolus;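 for t0.5, time to 50% reversal of the increase in coronary conductance: each agonist bolused at its minimal concentration giving equal maximal coronary conductance rise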;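 for t0.9, time to 90% reversal of the increase in coronary conductance: each agonist bolused at its minimal concentration giving equal maximal coronary conductance rise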
Method: FIG. 10. Reversal of effect of agonist stimulation on CC. […] CC was measured at 8, 16 and 24 minutes after administration (FIG. 10A). […] R and N are the correlation coefficient and number of agonists, respectively.
The relationship between the affinity of agonists for the A2A receptor and the rate of reversal of agonist-mediated responses (coronary vasodilation in heart and cAMP accumulation in PC12 cells) upon termination of drug administration were determined. […] The duration of the coronary vasodilation in isolated rat hearts caused by adenosine, the CVT compounds, and other agonists measured as the time to 50% and 90% (t0.5 and t0.9, respectively) reversal of the increases in coronary conductance after termination of drug administration are summarized in Table 4.

[2] = Coronary and peripheral artery blood flow velocity, HR and MAP in anesthetized closed-chest dogs; assay type: in vivo; parameters: APV: unit not given here; conditions: for APV / MAP / HR: Ado (200 or 300 ug/kg); for Coronary, maximal folds increase in average peak velocity (APVmax/APVbaseline) / Peripheral, maximal folds increase in average peak velocity (APVmax/APVbaseline): iv injection of CVT-3146 (1 μg/kg) and adenosine (200 or 300 μg/kg)
Method: Mongrel dogs (either sex, 17-21 kg; n=6) were obtained from a local vendor (Barton, Oxford, N.J.). Blood flow velocity in the coronary and cranial circumflex arteries was measured using Doppler transducer-tipped guide wires 0.014″ in diameter (FloWire®, model 1400J) purchased from Cardiometrics, Inc., Mountain View, Calif. For the positioning of the FloWire, a Judkins left coronary guiding catheter (JL3.5, 8F; Cordis) was used. Vascular arterial angiography was performed using Hypaque-76 contrast fluid (Bracco Diagnostics, Inc., Princeton, N.J.; Lot #9H28899) and a mobile fluoroscopic unit (Philips, BV 29). Systemic arterial blood pressure was measured using an electronic transducer-tipped catheter (Millar).
Following the administration of heparin (20 U/kg+100 U/hr), the pressure transducer-tipped catheter was introduced through the left femoral artery and positioned in the descending aorta. The Doppler FloWire was introduced through the right femoral artery. A peripheral vein was cannulated for the administration of all drugs. […] The sequence of positioning of the Doppler catheter was reversed in consecutive experiments. […] All parameters were allowed to recover (>30 min) to their respective baseline values between two consecutive drug administrations. […] The effect of adenosine on both coronary and peripheral artery APV was studied in five of the six dogs.
The following parameters were monitored and recorded: Average peak coronary and peripheral artery blood flow velocity (APV), mean arterial blood pressure (MAP) (mmHg), and sinus cycle length (SCL; msec). Differences in measure parameters were tested for statistical significance using ANOVA and Student's t test corrected for multiple measurements. Data are expressed as the mean±SEM.

[3] = CVT-3146 1 μg/kg, adenosine 200 or 300 μg/kg iv bolus, anesthetized dogs
[4] = anesthetized dogs, listed as adenosine

Nc1ncnc2c1ncn2[C@@H]1O[C@H](CO)[C@@H](O)[C@H]1O [Adenosine, adenosine, reference compound]
duration of the effect on coronary conductance (rank among agonists) ([1]; isolated rat hearts, FIG. 10): shortest | t0.5, time to 50% reversal of the increase in coronary conductance ([1]; rat isolated perfused heart): 1.6 ± 0.1 min | t0.9, time to 90% reversal of the increase in coronary conductance ([1]; rat isolated perfused heart): 5.6 ± 0.8 min | APV ([2]; Coronary, time 1′, Baseline 42 ± 5): 39 ± 8 | MAP ([2]; Coronary, time 1′, Baseline […] ± 6): 113 ± 6 mmHg | HR ([2]; Coronary, time 1′, Baseline 170 ± 10): 175 ± 5 | APV ([2]; Coronary, time 1.5′, Baseline 42 ± 5): 55 ± 8 | MAP ([2]; Coronary, time 1.5′, Baseline […] ± 6): 117 ± 6 mmHg | HR ([2]; Coronary, time 1.5′, Baseline 170 ± 10): 171 ± 5 | APV ([2]; Coronary, time 2′, Baseline 42 ± 5): 52 ± 7 | MAP ([2]; Coronary, time 2′, Baseline […] ± 6): 120 ± 6 mmHg | HR ([2]; Coronary, time 2′, Baseline 170 ± 10): 170 ± 5 | APV ([2]; Coronary, time 3′, Baseline 42 ± 5): 49 ± 6 | MAP ([2]; Coronary, time 3′, Baseline […] ± 6): 125 ± 6 mmHg | HR ([2]; Coronary, time 3′, Baseline 170 ± 10): 168 ± 8 | APV ([2]; Coronary, time 4′, Baseline 42 ± 5): 47 ± 6 | MAP ([2]; Coronary, time 4′, Baseline […] ± 6): 126 ± 6 mmHg | HR ([2]; Coronary, time 4′, Baseline 170 ± 10): 164 ± 10 | APV ([2]; Coronary, time 5′, Baseline 42 ± 5): 47 ± 6 | MAP ([2]; Coronary, time 5′, Baseline […] ± 6): 128 ± 6 mmHg | HR ([2]; Coronary, time 5′, Baseline 170 ± 10): 163 ± 10 | APV ([2]; Coronary, time 10″, Baseline 42 ± 5): 90 ± 10 | MAP ([2]; Coronary, time 10″, Baseline […] ± 6): 126 ± 8 mmHg | HR ([2]; Coronary, time 10″, Baseline 170 ± 10): 174 ± 7 | APV ([2]; Coronary, time 20″, Baseline 42 ± 5): 85 ± 10 | MAP ([2]; Coronary, time 20″, Baseline […] ± 6): 90 ± 9 mmHg | HR ([2]; Coronary, time 20″, Baseline 170 ± 10): 166 ± 11 | APV ([2]; Coronary, time 30″, Baseline 42 ± 5): 75 ± 9 | MAP ([2]; Coronary, time 30″, Baseline […] ± 6): 107 ± 9 mmHg | HR ([2]; Coronary, time 30″, Baseline 170 ± 10): 173 ± 6 | APV ([2]; Peripheral, time 1′, Baseline 33 ± 3): 44 ± 7 | MAP ([2]; Peripheral, time 1′, Baseline 118 ± 8): 105 ± 6 mmHg | HR ([2]; Peripheral, time 1′, Baseline 165 ± 10): 171 ± 6 | APV ([2]; Peripheral, time 1.5′, Baseline 33 ± 3): 38 ± 4 | MAP ([2]; Peripheral, time 1.5′, Baseline 118 ± 8): 106 ± 7 mmHg | HR ([2]; Peripheral, time 1.5′, Baseline 165 ± 10): 171 ± 6 | APV ([2]; Peripheral, time 2′, Baseline 33 ± 3): 35 ± 3 | MAP ([2]; Peripheral, time 2′, Baseline 118 ± 8): 110 ± 6 mmHg | HR ([2]; Peripheral, time 2′, Baseline 165 ± 10): 169 ± 6 | APV ([2]; Peripheral, time 3′, Baseline 33 ± 3): 33 ± 3 | MAP ([2]; Peripheral, time 3′, Baseline 118 ± 8): 115 ± 7 mmHg | HR ([2]; Peripheral, time 3′, Baseline 165 ± 10): 165 ± 9 | APV ([2]; Peripheral, time 4′, Baseline 33 ± 3): 31 ± 3 | MAP ([2]; Peripheral, time 4′, Baseline 118 ± 8): 119 ± 8 mmHg | HR ([2]; Peripheral, time 4′, Baseline 165 ± 10): 160 ± 9 | APV ([2]; Peripheral, time 5′, Baseline 33 ± 3): 30 ± 2 | MAP ([2]; Peripheral, time 5′, Baseline 118 ± 8): 121 ± 7 mmHg | HR ([2]; Peripheral, time 5′, Baseline 165 ± 10): 158 ± 10 | APV ([2]; Peripheral, time 10″, Baseline 33 ± 3): 62 ± 9 | MAP ([2]; Peripheral, time 10″, Baseline 118 ± 8): 107 ± 9 mmHg | HR ([2]; Peripheral, time 10″, Baseline 165 ± 10): 171 ± 6 | APV ([2]; Peripheral, time 20″, Baseline 33 ± 3): 76 ± 10 | MAP ([2]; Peripheral, time 20″, Baseline 118 ± 8): 85 ± 9 mmHg | HR ([2]; Peripheral, time 20″, Baseline 165 ± 10): 162 ± 15 | APV ([2]; Peripheral, time 30″, Baseline 33 ± 3): 59 ± 11 | MAP ([2]; Peripheral, time 30″, Baseline 118 ± 8): 87 ± 9 mmHg | HR ([2]; Peripheral, time 30″, Baseline 165 ± 10): 168 ± 9 | duration of >2-fold increase in coronary APV [2, 3]: < 20 s | time for all parameters to return to baseline post injection [2, 3]: ≤ 10 min | Coronary, maximal folds increase in average peak velocity (APVmax/APVbaseline) ([2]; anesthetized dogs): 2.5 ± 0.3 fold | Peripheral, maximal folds increase in average peak velocity (APVmax/APVbaseline) ([2]; anesthetized dogs): 2.0 ± 0.4 fold | Coronary, maximal folds increase in average peak velocity (APVmax/APVbaseline) [2, 4]: 2.5±0.3 fold | Peripheral, maximal folds increase in average peak velocity (APVmax/APVbaseline) [2, 4]: 2.0±0.4 fold

Source: US20050175535A1 (CV Therapeutics, Inc., priority 2000, published 2005)
